For 29 compounds, IC50 results are on record in patent US11685746B2, “Heteroaryl compounds for treating Huntington's disease” (PTC THERAPEUTICS, INC., priority 2018, dated 2023).

The assay concerns Endogenous Huntingtin Protein. Nature of the assay: Endogenous Huntingtin Protein Assay (MSD plates, MW1 or MAB2166 capture antibody). The assay is classed as cell-based. As to conditions: Table 1. The method in brief: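 Endogenous huntingtin was captured overnight at 4° C on wells coated with 1 μg/mL MW1 (polyglutamine-specific) or MAB2166. Detection used rabbit #5656S and then goat anti-rabbit SULFO-TAG, both at 0.25 μg/mL and 1 h at room temperature. Plates were imaged on the MSD system in read buffer T.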
In turn, `CCN1[C@@H]2CC[C@H]1C[C@H](N(C)c1nc3sc(-n4ccc(-c5cn[nH]c5)cc4=O)nc3s1)C2` [Compound 166, 1-(5-{[(1R,3s,5S)-8-ethyl-8-azabicyclo[3.2.1]octan-3-yl](methyl)amino}[1,3]thiazolo[5,4-d][1,3]thiazol-2-yl)-4-(1H-pyrazol-4-yl)pyridin-2(1H)-one] showed an IC50 of at most 100 nM.
For `CN(c1nc2sc(-c3ccc(-c4cn[nH]c4)nn3)nc2s1)C1CC(C)(C)NC(C)(C)C1` [Compound 167, N-methyl-5-[6-(1H-pyrazol-4-yl)pyridazin-3-yl]-N-(2,2,6,6-tetramethylpiperidin-4-yl)[1,3]thiazolo[5,4-d][1,3]thiazol-2-amine] the value was 100 to 500 nM; for `CN(c1nc2sc(-c3ccc(-c4cn[nH]c4)nn3)nc2s1)[C@@H]1C[C@H]2CC[C@@H](C1)N2` [Compound 168, N-[(1R,3s,5S)-8-azabicyclo[3.2.1]octan-3-yl]-N-methyl-5-[6-(1H-pyrazol-4-yl)pyridazin-3-yl][1,3]thiazolo[5,4-d][1,3]thiazol-2-amine], at most 100 nM.
For `CN(c1nc2sc(-n3ccc(-c4cn[nH]c4)cc3=O)nc2s1)[C@H]1CCCNC1` [Compound 169, 1-(5-{methyl[(3S)-piperidin-3-yl]amino}[1,3]thiazolo[5,4-d][1,3]thiazol-2-yl)-4-(1H-pyrazol-4-yl)pyridin-2(1H)-one] the value was at most 100 nM.
For `CN(c1nc2sc(-n3cnc(-c4cn[nH]c4)c3)nc2s1)[C@@H]1C[C@H]2CC[C@@H](C1)N2` [Compound 170, N-[(1R,3s,5S)-8-azabicyclo[3.2.1]octan-3-yl]-N-methyl-5-[4-(1H-pyrazol-4-yl)-1H-imidazol-1-yl][1,3]thiazolo[5,4-d][1,3]thiazol-2-amine] the value was 100 to 500 nM.
`CN(c1nc2sc(-n3ccc(Br)cc3=O)nc2s1)[C@@H]1C[C@H]2CC[C@@H](C1)N2` [Compound 171, 1-(5-{[(1R,3s,5S)-8-azabicyclo[3.2.1]octan-3-yl](methyl)amino}[1,3]thiazolo[5,4-d][1,3]thiazol-2-yl)-4-bromopyridin-2(1H)-one] had an IC50 of at most 100 nM.
With `CN(c1nc2sc(-n3cnc(-c4cn[nH]c4)cc3=O)nc2s1)[C@@H]1C[C@H]2CC[C@@H](C1)N2` [Compound 172, 3-(5-{[(1R,3s,5S)-8-azabicyclo[3.2.1]octan-3-yl](methyl)amino}[1,3]thiazolo[5,4-d][1,3]thiazol-2-yl)-6-(1H-pyrazol-4-yl)pyrimidin-4(3H)-one] the figure was at most 100 nM; with `CN(c1nc2sc(-c3ccc(-c4cn[nH]c4)nc3)nc2s1)[C@@H]1C[C@H]2CC[C@@H](C1)N2` [Compound 173, N-[(1R,3s,5S)-8-azabicyclo[3.2.1]octan-3-yl]-N-methyl-5-[6-(1H-pyrazol-4-yl)pyridin-3-yl][1,3]thiazolo[5,4-d][1,3]thiazol-2-amine], at most 100 nM.
With `CN(c1nc2sc(-c3ccc(-c4cn[nH]c4)cn3)nc2s1)[C@@H]1C[C@H]2CC[C@@H](C1)N2` [Compound 174, N-[(1R,3s,5S)-8-azabicyclo[3.2.1]octan-3-yl]-N-methyl-5-[5-(1H-pyrazol-4-yl)pyridin-2-yl][1,3]thiazolo[5,4-d][1,3]thiazol-2-amine] the figure was at most 100 nM; with `CN(c1nc2sc(-c3cnc(-c4cn[nH]c4)nc3)nc2s1)[C@@H]1C[C@H]2CC[C@@H](C1)N2` [Compound 175, N-[(1R,3s,5S)-8-azabicyclo[3.2.1]octan-3-yl]-N-methyl-5-[2-(1H-pyrazol-4-yl)pyrimidin-5-yl][1,3]thiazolo[5,4-d][1,3]thiazol-2-amine], at most 100 nM.
`Cn1cc2cc(-c3nc4sc(N5CC6(CCNCC6)C5)nc4s3)cc(F)c2n1` [Compound 176, 5-[5-(2,7-diazaspiro[3.5]nonan-2-yl)[1,3]thiazolo[5,4-d][1,3]thiazol-2-yl]-7-fluoro-2-methyl-2H-indazole] returned an IC50 of 100 to 500 nM.
With `Fc1cc(-c2nc3sc(N4CC5(CCNCC5)C4)nc3s2)c(F)cc1-c1cn[nH]c1` [Compound 177, 2-{5-[2,5-difluoro-4-(1H-pyrazol-4-yl)phenyl][1,3]thiazolo[5,4-d][1,3]thiazol-2-yl}-2,7-diazaspiro[3.5]nonane] the figure was 1000 to 3000 nM; with `CN(c1nc2sc(-n3ccc(-c4cn[nH]c4)cc3=O)nc2s1)[C@@H]1C[C@H]2CC[C@@H](C1)N2C` [Compound 178, 1-(5-{methyl[(1R,3s,5S)-8-methyl-8-azabicyclo[3.2.1]octan-3-yl]amino}[1,3]thiazolo[5,4-d][1,3]thiazol-2-yl)-4-(1H-pyrazol-4-yl)pyridin-2(1H)-one], at most 100 nM; with `CN1CCC2(CC1)CCN2c1nc2sc(-c3ncc(-c4cn[nH]c4)cc3O)nc2s1` [Compound 179, 2-[5-(7-methyl-1,7-diazaspiro[3.5]nonan-1-yl)[1,3]thiazolo[5,4-d][1,3]thiazol-2-yl]-5-(1H-pyrazol-4-yl)pyridin-3-ol], at most 100 nM.
Compound `CC1CC(N(C)c2nc3sc(-n4ccc(-c5cn[nH]c5)cc4=O)nc3s2)CCN1C` (centres unmarked) [Compound 180, 1-{5-[(1,2-dimethylpiperidin-4-yl)(methyl)amino][1,3]thiazolo[5,4-d][1,3]thiazol-2-yl}-4-(1H-pyrazol-4-yl)pyridin-2(1H)-one] showed an IC50 of at most 100 nM.
In turn, `CN(c1nc2sc(-n3ccc(-c4cn[nH]c4)cc3=O)nc2s1)C1CC(C)(C)NC(C)(C)C1` [Compound 181, 1-{5-[methyl(2,2,6,6-tetramethylpiperidin-4-yl)amino][1,3]thiazolo[5,4-d][1,3]thiazol-2-yl}-4-(1H-pyrazol-4-yl)pyridin-2(1H)-one] showed an IC50 of at most 100 nM.
Take `CC1CC(N(C)c2nc3sc(-c4ncc(-c5cn[nH]c5)cc4O)nc3s2)CCN1C` (centres unmarked) [Compound 182, 2-{5-[(1,2-dimethylpiperidin-4-yl)(methyl)amino][1,3]thiazolo[5,4-d][1,3]thiazol-2-yl}-5-(1H-pyrazol-4-yl)pyridin-3-ol]: the IC50 is at most 100 nM.
Compound `CN(c1nc2sc(-c3ccc(-c4cn[nH]c4)c4cc[nH]c34)nc2s1)[C@@H]1C[C@H]2CC[C@@H](C1)N2` [Compound 183, N-[(1R,3s,5S)-8-azabicyclo[3.2.1]octan-3-yl]-N-methyl-5-[4-(1H-pyrazol-4-yl)-1H-indol-7-yl][1,3]thiazolo[5,4-d][1,3]thiazol-2-amine] came in with an IC50 of at most 100 nM.
For `CN(c1nc2sc(-c3ncc(-c4cn[nH]c4)c4cc[nH]c34)nc2s1)[C@@H]1C[C@H]2CC[C@@H](C1)N2` [Compound 184, N-[(1R,3s,5S)-8-azabicyclo[3.2.1]octan-3-yl]-N-methyl-5-[4-(1H-pyrazol-4-yl)-1H-pyrrolo[2,3-c]pyridin-7-yl][1,3]thiazolo[5,4-d][1,3]thiazol-2-amine] the value was at most 100 nM.
For `CN(c1nc2sc(-c3ncc(Br)cc3O)nc2s1)[C@@H]1C[C@H]2CC[C@@H](C1)N2` [Compound 185, 2-(5-{[(1R,3s,5S)-8-azabicyclo[3.2.1]octan-3-yl](methyl)amino}[1,3]thiazolo[5,4-d][1,3]thiazol-2-yl)-5-bromopyridin-3-ol] the value was at most 100 nM; for `CN(c1nc2sc(-c3ncc(Br)cn3)nc2s1)[C@@H]1C[C@H]2CC[C@@H](C1)N2` [Compound 186, N-[(1R,3s,5S)-8-azabicyclo[3.2.1]octan-3-yl]-5-(5-bromopyrimidin-2-yl)-N-methyl[1,3]thiazolo[5,4-d][1,3]thiazol-2-amine], at most 100 nM.
For `CN(c1nc2sc(-n3ccccc3=O)nc2s1)[C@@H]1C[C@H]2CC[C@@H](C1)N2` [Compound 187, 1-(5-{[(1R,3s,5S)-8-azabicyclo[3.2.1]octan-3-yl](methyl)amino}[1,3]thiazolo[5,4-d][1,3]thiazol-2-yl)pyridin-2(1H)-one] the value was 100 to 500 nM; for `CN(c1nc2sc(-n3ccc(-c4cn[nH]c4)cc3=O)nc2s1)C1CCNCC1` [Compound 188, 1-{5-[methyl(piperidin-4-yl)amino][1,3]thiazolo[5,4-d][1,3]thiazol-2-yl}-4-(1H-pyrazol-4-yl)pyridin-2(1H)-one], at most 100 nM; for `Oc1cc(-c2cn[nH]c2)cnc1-c1nc2sc(N3CCC34CCNCC4)nc2s1` [Compound 189, 2-[5-(1,7-diazaspiro[3.5]nonan-1-yl)[1,3]thiazolo[5,4-d][1,3]thiazol-2-yl]-5-(1H-pyrazol-4-yl)pyridin-3-ol], 100 to 500 nM.
The compound `Cc1cnn(-c2cnc(-c3nc4sc(N(C)[C@@H]5C[C@H]6CC[C@@H](C5)N6)nc4s3)c(O)c2)c1` [Compound 190, 2-(5-{[(1R,3s,5S)-8-azabicyclo[3.2.1]octan-3-yl](methyl)amino}[1,3]thiazolo[5,4-d][1,3]thiazol-2-yl)-5-(4-methyl-1H-pyrazol-1-yl)pyridin-3-ol] had a half-inhibitory concentration (IC50) of at most 100 nM.
For `CN(c1nc2sc(-c3ncc(-c4ccn(C)c(=O)c4)cc3O)nc2s1)[C@@H]1C[C@H]2CC[C@@H](C1)N2` [Compound 191, 6-(5-{[(1R,3s,5S)-8-azabicyclo[3.2.1]octan-3-yl](methyl)amino}[1,3]thiazolo[5,4-d][1,3]thiazol-2-yl)-5-hydroxy-1′-methyl[3,4′-bipyridin]-2′(1′H)-one] the value was at most 100 nM.
For `Oc1cc(-c2cn[nH]c2)cnc1-c1nc2sc(N3CC4(CCCNC4)C3)nc2s1` [Compound 192, 2-[5-(2,6-diazaspiro[3.5]nonan-2-yl)[1,3]thiazolo[5,4-d][1,3]thiazol-2-yl]-5-(1H-pyrazol-4-yl)pyridin-3-ol], the IC50 is at most 100 nM.
For `CN(c1nc2sc(-c3ncc(-n4cc(F)cn4)cc3O)nc2s1)[C@@H]1C[C@H]2CC[C@@H](C1)N2` [Compound 193, 2-(5-{[(1R,3s,5S)-8-azabicyclo[3.2.1]octan-3-yl](methyl)amino}[1,3]thiazolo[5,4-d][1,3]thiazol-2-yl)-5-(4-fluoro-1H-pyrazol-1-yl)pyridin-3-ol] the value was at most 100 nM.
The compound `CN(c1nc2sc(-c3ncc(-c4cn[nH]c4)cn3)nc2s1)[C@@H]1C[C@H]2CC[C@@H](C1)N2` [Compound 194, N-[(1R,3s,5S)-8-azabicyclo[3.2.1]octan-3-yl]-N-methyl-5-[5-(1H-pyrazol-4-yl)pyrimidin-2-yl][1,3]thiazolo[5,4-d][1,3]thiazol-2-amine] showed an IC50 of at most 100 nM.

Broadly, the IC50 is the midpoint of a concentration-inhibition curve. A low value points to greater potency.
